The values that follow come from patent US20210198277A1, “AMINE-SUBSTITUTED ARYL OR HETEROARYL COMPOUNDS” (Epizyme, Inc., priority 2016, published 2021).

This assay addresses T1, EHMT2 (Homo sapiens, UniProt Q96KQ7).
T1 construct: host or cells: MDA-MB-231
T1 sequence (Q96KQ7 1-1210): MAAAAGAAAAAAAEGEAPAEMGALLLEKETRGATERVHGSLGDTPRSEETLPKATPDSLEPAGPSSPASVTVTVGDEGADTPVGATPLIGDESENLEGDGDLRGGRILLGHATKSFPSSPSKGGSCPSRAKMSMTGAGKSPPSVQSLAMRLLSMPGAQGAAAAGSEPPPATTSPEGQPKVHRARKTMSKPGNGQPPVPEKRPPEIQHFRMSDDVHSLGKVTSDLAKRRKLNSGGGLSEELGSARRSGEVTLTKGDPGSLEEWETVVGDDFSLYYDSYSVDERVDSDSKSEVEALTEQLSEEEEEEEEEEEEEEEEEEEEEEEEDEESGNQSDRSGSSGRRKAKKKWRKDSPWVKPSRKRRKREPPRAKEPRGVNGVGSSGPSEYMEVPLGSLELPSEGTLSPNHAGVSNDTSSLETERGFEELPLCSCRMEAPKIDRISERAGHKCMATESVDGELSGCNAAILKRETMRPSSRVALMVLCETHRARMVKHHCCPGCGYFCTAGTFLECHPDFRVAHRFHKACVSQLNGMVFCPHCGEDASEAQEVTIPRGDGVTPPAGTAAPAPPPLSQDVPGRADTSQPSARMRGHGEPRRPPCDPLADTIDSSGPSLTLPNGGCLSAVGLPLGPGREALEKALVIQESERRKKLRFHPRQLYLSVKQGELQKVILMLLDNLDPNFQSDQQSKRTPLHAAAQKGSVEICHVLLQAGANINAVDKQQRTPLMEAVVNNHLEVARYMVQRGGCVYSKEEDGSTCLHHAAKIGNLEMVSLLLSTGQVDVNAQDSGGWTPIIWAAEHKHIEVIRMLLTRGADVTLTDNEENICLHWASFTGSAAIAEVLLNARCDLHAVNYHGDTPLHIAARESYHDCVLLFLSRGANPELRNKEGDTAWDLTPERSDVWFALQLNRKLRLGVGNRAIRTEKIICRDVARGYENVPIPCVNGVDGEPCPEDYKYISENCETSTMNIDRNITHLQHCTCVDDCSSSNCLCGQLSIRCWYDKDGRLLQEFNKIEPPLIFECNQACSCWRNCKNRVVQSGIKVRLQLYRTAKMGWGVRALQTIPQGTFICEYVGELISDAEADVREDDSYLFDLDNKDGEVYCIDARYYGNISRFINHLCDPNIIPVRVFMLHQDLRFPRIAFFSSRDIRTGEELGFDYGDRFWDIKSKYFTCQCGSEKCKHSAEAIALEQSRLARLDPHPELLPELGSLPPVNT
As to the kind of experiment: MDA-MB-231 H3K9me2 in-cell Western assay (EHMT2 ICW). Conditions: Table II; MDA-MB-231 H3K9me2 in-cell Western; read-out: EHMT2 ICW (IC50 μM). It is filed as cell-based. In outline: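 For 48 h at 37 °C, breast cancer MDA-MB-231 cells were incubated with compound, then fixed and immunostained for H3K9me2, with DRAQ5 used for normalisation. Each well's signal ratio yielded percent inhibition, and IC50 values were derived by fitting a four-parameter curve.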

Some results are limits rather than exact numbers.

The term IC50 denotes the concentration at which inhibition is half-maximal. Regarding `COc1ccc(Nc2nccc(NCCNC(C)=O)n2)cc1OCCCN1CCCC1` [Compound 38], the half-inhibitory concentration (IC50) was in the range of 0.1 to 1 µM.

`COc1ccc(Nc2ccnc(NCC3CCN(C(C)=O)CC3)n2)cc1OCCCN1CCCC1` [Compound 216]: the IC50 is more than 10 µM.

On to `CNc1ccnc(Nc2ccc(OC)c(OCCCN3CCCC3)c2)c1` [Compound 209, N^2-(4-methoxy-3-(3-(pyrrolidin-1-yl)propoxy)phenyl)-N^4-methylpyridine-2,4-diamine], for which the IC50 lay in the range of 1 to 10 µM.

Take `COc1ccc(Nc2nccc(N)n2)cc1OCCCN1CCCC1` [Compound 245]: the half-inhibitory concentration (IC50) lay within 1 to 10 µM.

As for `COc1ccc(Nc2nccc(NC3CCCCC3)n2)cc1OCCCN1CCCC1` [Compound 50], the IC50 is 1 to 10 µM.

For the compound `CNc1ccnc(Nc2ccc(OC)c(OCCCN3CC[C@@H](F)C3)c2)n1` [Compound 229], the IC50 was 1 to 10 µM.

`CNc1cc(C)nc(Nc2ccc(OC)c(OCCCN3CCCC3)c2)n1` [Compound 205, N^2-(4-methoxy-3-(3-(pyrrolidin-1-yl)propoxy)phenyl)-N^4,6-dimethylpyrimidine-2,4-diamine]: the IC50 was less than 0.1 µM.

Turning to `CNc1ncc(C(F)(F)F)c(Nc2ccc(OC)c(OCCCN3CCCC3)c2)n1` [Compound 235], the half-maximal inhibitory concentration (IC50) was more than 10 µM.

As to `COc1ccc(Nc2nccc(Nc3cccc(F)c3)n2)cc1OCCCN1CCCC1` [Compound 225], the concentration for half-maximal inhibition (IC50) lay in the range of 1 to 10 µM.

Turning to `COc1ccc(Nc2nccc(NCC3CCN(C(C)=O)CC3)n2)cc1OCC1CCN(C)C1` (centres unmarked) [Compound 18, 1-(4-(((2-((4-methoxy-3-((1-methylpyrrolidin-3-yl)methoxy)phenyl)amino)pyrimidin-4-yl)amino)methyl)piperidin-1-yl)ethan-1-one], the IC50 is 1 to 10 µM.

`CNc1nc(Nc2ccc(OC)c(OCCCN3CCCC3)c2)nc(C)c1F` [Compound 236]: the concentration for half-maximal inhibition (IC50) was in the range of 0.1 to 1 µM.

Turning to `CNc1ccnc(Nc2ccc(OC)c(OCCCN3CC(F)C3)c2)n1` [Compound 230], the IC50 lay within 1 to 10 µM.

Take `CNc1cncc(Nc2ccc(OC)c(OCCCN3CCCC3)c2)n1` [Compound 247]: the IC50 was 1 to 10 µM.

In the case of `COc1ccc(Nc2nc(C)cc(NCC3CCN(C(C)=O)CC3)n2)cc1OCCCN1CCCC1` [Compound 19, 1-(4-(((2-((4-methoxy-3-(3-(pyrrolidin-1-yl)propoxy)phenyl)amino)-6-methylpyrimidin-4-yl)amino)methyl)piperidin-1-yl)ethan-1-one], the half-maximal inhibitory concentration (IC50) lay within 0.1 to 1 µM.

For `COc1ccc(Nc2nccc(NCC3(O)CCCCC3)n2)cc1OCCCN1CCCC1` [Compound 45], the IC50 is 1 to 10 µM.

`COc1ccc(Nc2nccc(NC(C)C)n2)cc1OCCCN1CCCC1` [Compound 20]: the IC50 was 0.1 to 1 µM.

Take `COc1ccc(Nc2nccc(NCC3CCN(C)CC3)n2)cc1OCCCN1CCCC1` [Compound 32]: the IC50 is 0.1 to 1 µM.

With `COc1ccc(Nc2nccc(NCCCN(C)C(C)=O)n2)cc1OCCCN1CCCC1` [Compound 44], the IC50 fell in the range of 1 to 10 µM.

`COc1ccc(Nc2nccc(-c3cnn(C)c3)n2)cc1OCCCN1CCCC1` [Compound 224]: the half-inhibitory concentration (IC50) was more than 10 µM.

In the case of `CNc1cnnc(Nc2ccc(OC)c(OCCCN3CCCC3)c2)c1` [Compound 246], the IC50 is more than 10 µM.

As for `COc1ccc(Nc2nccc(NCCS(=O)(=O)N(C)C)n2)cc1OCCCN1CCCC1` [Compound 43], the IC50 was 1 to 10 µM.

Take `CNc1cc(Nc2cc(OCCCN3CCCC3)c(OC)cn2)ccn1` [Compound 248]: the concentration for half-maximal inhibition (IC50) lay within 0.1 to 1 µM.

In the case of `COc1ccc(Nc2nccc(CNC3CCOCC3)n2)cc1OCCCNc1ccccc1` [Compound 241], the IC50 is more than 10 µM.

As for `COc1ccc(Nc2nccc(NCCc3ccncc3)n2)cc1OCCCN1CCCC1` [Compound 39], the IC50 was 0.1 to 1 µM.

As to `CNc1ccnc(Nc2ccc(F)c(OCCCN3CCCC3)c2)n1` [Compound 244], the IC50 is more than 10 µM.

Turning to `CNc1nc(Nc2ccc(OC)c(OCCCN3CCCC3)c2)ncc1C#N` [Compound 233], the half-inhibitory concentration (IC50) was more than 10 µM.
